Laboratory results from patent US9303069B2, “Peptides for treating cancer” (University of Mississippi Medical Center, priority 2014, dated 2016).
Ends that are not written are not given here.

Columns and labels:
[1] = tested on: HOSE, HOSE/IRIS, SKOV3, OVCAR3, OVCAR420 and OV-90 cells; test: Survival of ovarian cell lines after siRNA transfection followed by IRIS peptide; type: cell-based, human; conditions: then increasing concentrations of IRIS peptide 24 hours
Method: To establish the specificity of this peptide further, it was assumed that it would not affect cells already depleted from BRCA1-IRIS. To do that HOSE, HOSE/IRIS, SKOV3, OVCAR3, OVAC420 and OV-90 cells were first transfected with luciferase (as control, hereafter siLuc) or BRCA1-IRIS (hereafter siIRIS) specific siRNAs for 48 hours before they were exposed to increasing concentrations of IRIS peptide for another 24 hours.
Cell viability measurement. Cell viability under different experimental conditions was determined using the MTS assay or cell. […] Cell viability (%) was expressed as a ratio to control cells×100. Growth inhibition was also determined by manually counting cells in five different microscopic fields. Change in cell numbers (fold) was expressed as a ratio to control cells×100. […]
Transfections of siRNA. siRNAs for human ErbB2 and TrkB were purchased from Ambion and Santa Cruz Biotechnology, USA. […] Cell viability was evaluated by MTS or by manual counting after 72 hours of siRNA exposure alone or in combination with cisplatin exposure (for an additional 24 hours).

[2] = tested on: SKOV3 cells; test: Invasion assay, matrigel-coated Boyden chambers, SKOV3; type: cell-based, human; conditions: 72 hours, IRIS peptide 5 μM, versus control-treated cells
Method: Invasion assay: Control (transfected with siLuc or treated with scrambled peptide, 5 μM) or shIRIS expressing SKOV3 cells were layered on top of matrigel-coated Boyden chambers. Some cultures were treated with 5 μM IRIS peptide. Seventy-two hours later, cells that invaded the matrigel and migrated to the lower side of the chambers were stained with Crystal Violet, counted and photographed. […] Similarly, BRCA1-IRIS silenced cells also lost their invasion ability by ˜75 fold (compare C to A in FIG. 36 and FIG. 35).
Cell Invasion assay. Growth reduced BD Matrigel™ invasion chamber (24 well plate, 8.0 μm, BD BioCoat™) was used to study the invasion ability of control and shBRCA1-IRIS cells. Cells (5×10^3) in complete medium (500 μl) were seeded on the upper compartment, and the lower compartment was filled with 750 μl of complete growth medium. Cells were incubated for 72 hours. The medium from the upper chamber was removed, and the cells on the upper surface of the membrane were removed carefully with a cotton swab. Invasive cells in lower side of the membrane were stained with crystal violet dye for 10 minutes. After staining, the upper chamber was rinse thoroughly with water until the water runs clear. Stained and dry chambers were visualized with microscope and photographed.

[3] = tested on: SKOV3 tumors; test: In vivo efficacy on established SKOV3 tumors; design: species or system mice; conditions: day 16; cisplatin 5 mg/kg i.p., IRIS peptide 10 mg/kg i.t., every third day, four times
Method: Further, to determine whether IRIS peptide could have any efficacy in vivo and/or whether it sensitizes ovarian tumors to low, clinically relevant concentrations of cisplatin, four sets of nude mice (n=6 each) were subcutaneously injected with SKOV3 cells. Ten days later, when tumors were ˜250 mm^3 in volume, one group was treated with controls (i.e. DMSO delivered i.p. and scrambled peptide delivered directly into the tumors, i.t.), a second group was treated with cisplatin (5 mg/kg, delivered i.p.), a third group was treated with IRIS peptide (10 mg/kg, injected i.t.), and a fourth group was treated with both. Treatments were delivered every third day for a total of four times. For the next 16 days, tumors were measured daily with a caliper. Mice were then sacrificed, and their tumors or their remnants were taken.
Efficacy of BRCA1-IRIS inhibitory peptide, in vivo. Six to eight week old female athymic SCID mice were injected subcutaneously with 2.5×10^6 SKOV3 cells in the flank region. Their respective tumor growth was measured with a caliper. When the tumor volume reached 250 mm^3, mice were randomly grouped into four groups. One group (control) was treated with scrambled peptide (10 mg/kg) and DMSO. A second was treated with BRCA1-IRIS inhibitory peptide (10 mg/kg, body weight). […] Change in tumor volume was measured to monitor the efficacy of the treatment. […]

[4] = tested on: AKT, p-AKT, p-FOXO and FOXO3a; test: Signalling proteins in MDA-MB-231 and MDA-MB-468 cells (Western); type: cell-based, human
Text: This was completely in line with decreased MDM2 and Skp2 (the ubiquitin ligases responsible for p-FOXO degradation) expression in BRCA1-IRIS silenced and BRCA1-IRIS and AKT inactivated cells (FIG. 87).

Sequence: RRIRPRPPRLPRPRPRPLPFPRPGIGTRFLCLPQSIYRSELNVYAFGEHILQISKYS [IRIS peptide]
- effect of IRIS peptide on survival of BRCA1-IRIS silenced cells ([1]; siIRIS 48 hours): not affected by the peptide at any of the concentrations tested
- effect of IRIS peptide on survival of siLuc-transfected cells ([1]; siLuc 48 hours): gradual decrease in the survival of all cell lines
- decreased ability to invade [2]: ~100 fold
- reduction in tumor size [3]: ~50%
- total and activated AKT (p-AKT) levels ([4]; 5 μM IRIS peptide or 10 μM LY294002, 24 hours): decreased the levels of total and activated AKT (p-AKT) in both cell lines
- p-FOXO and FOXO3a levels ([4]; 5 μM IRIS peptide, 10 μM LY294002 or 10 μM PD98059, 24 hours): decreased p-FOXO level and increased the levels of FOXO3a in both cell lines
